Measurements: patent US20220409646A1, “MALTOSYL-ISOMALTO-OLIGOSACCHARIDES REDUCE SYMPTOMS OF GASTROESOPHAGEAL REFLUX DISEASE” (ISOThrive Inc., priority 2021, published 2022)

Test system: subjects with GERD
Settings: human, in vivo
Source text: The study began in March 2020 when a total of 110 subjects were screened for GERD using stringent eligibility criteria by the study coordinator and the principal investigator. […] The subjects acted as their own controls and there was no placebo arm. All subjects had active symptoms as determined by verbal history and daily ReQuest (RQ) validated GERD questionnaire symptom scores above specified thresholds, or GERD symptoms at four or more days per week.
As of May 2021, 44 subjects had completed the following protocol. […] Symptom evaluation for each included: RQ_GI: acid and abdominal (upper/lower) complaints, nausea; RQ_WSO: general well-being, sleep disturbances, and other complaints; and RQ_TOT: the sum of both. The Short Form 36 Health Survey validated questionnaire (see webpage physio-pedia.com/36-Item_Short_Form_Survey_(SF-36)) was used to assess quality of life. The SF-36 form was completed by subjects on day seven of week zero as well as on each day seven per week during the study duration. The subjects had to report any usage of GERD medications such as PPIs, H2 antagonists, and acids throughout the study, as well as any changes in their other medications. The primary endpoint was tolerability, defined as ending on week four with a request symptom score and a SF-36 score that was at or better than the baseline week zero score (determined as >0% reduction in weekly mean RQ symptom scores as % from baseline to week 4). Statistical analysis was done using the Wilcoxon signed-rank test with multiple comparison correction. In addition, a comparison was made of the number of days without acid complaints per week, or the heartburn-free days per week, for week four compared to the week zero baseline.
It was taken 1 g daily at bedtime.
All subjects had active GERD symptoms as determined by the ReQuest validated GERD specific questionnaire and/or GERD symptoms at least 4 days per week. […] All subjects were screened per the eligibility criteria delineated in this protocol by the study coordinator. The study was done remotely. There was communication but no in person contact or visits with the study coordinator.
Two phases were designed into this study. Phase 1 was the Screening Phase (SP). Phase 2 was the Tolerability Phase (TP). Subjects were instructed to take a daily GERD symptom questionnaire, the ReQuest Short Version, daily throughout the study. At five timepoints, specific scores were established for comparison and statistical analysis.

maltosyl-isomaltooligosaccharides [ISOT-101]
ISOT-101-related adverse events: no ISOT-101-related adverse events
nausea, number of patients: 2 patients
nausea, share of patients: 5%
subjects who either did not improve or got worse: Five
tolerability (in words): well tolerated
worsening of RQ_GI (gastrointestinal symptoms), number of subjects: 5 of 44
worsening of RQ_TOT (total scores), number of subjects: 4 of 44
worsening of RQ_TOT (total scores), share of subjects: 9%
